{"source": "patent US6492531B1", "about": "“Method of treating cognitive disorders” (Warner-Lambert Company, priority 1992, dated 2002)", "key": {"rat": {"system": "rat", "test": "rat T-maze reinforced alternation task", "assay_type": "in vivo", "settings": "twice daily 0.25 mg/kg", "protocol": "(§1) A test carried out using the mouse light/dark box and the rat T-maze reinforced alternation task.\nThe X axis is the day and the Y axis is the percent correct responses.\nThe number of mice tested was six.\n⬭ - - - ⬭ is the control vehicle.\n⬬ - - - ⬬ is scopolamine at 0.25 mg/kg IP BID."}, "mice": {"system": "mice", "test": "mouse light/dark box habituation test", "assay_type": "in vivo", "settings": "0.25 mg/kg", "protocol": "as §1\nOn repeated exposure to the light/dark box mice habituate by moving more rapidly from the light to the dark side. The habituation occurs over a 4 to 6 day period, with a reduction in latency of movement from about 14 sec to 2 to 4 sec by the 4th day of the test.\nThe compounds was administered at a dose of 0.00001 mg/kg SC once daily.\nThe days (1-6) are along the X axis and the time in seconds is along the Y axis (latency white to black) and Day 6 scopolamine was 0.25.\n∘ p <0.001 indicates improved habituation, comparison is with 1 day.\n* p <0.05 to p <0.001 is improved performance, compared to control.\n+ p <0.001 is scopolamine impairment.\nΔ p <0.001 is inhibition of scopolamine impairment."}}}
{"smiles": "CN1[C@@H]2C[C@@H](OC(=O)[C@H](CO)c3ccccc3)C[C@H]1[C@@H]1O[C@@H]12", "note": "[scopolamine]", "values": [{"measurement": "effect of scopolamine on task performance", "setting": "rat", "value": "deficit"}, {"measurement": "effect of scopolamine on habituation performance", "setting": "mice", "value": "impairment of performance"}]}
